Test results from paper PMC10321319 (Nature, 2022).
≈ marks a conversion by molar mass, not a printed value. Read-outs that look alike come from different tables or passages of the source. Positions of bridges follow the written chain, without caps; N, C: chain ends. Non-standard residues stand in square brackets, D forms with d. Residues, ends and D or L forms follow the SMILES beside them. *: point of attachment. X1 = CC[C@H](C)CCCCC(=O)*; Dab = NCC[C@H](N)C(=O)O

How the values were obtained:
[1] = system: E. cloacae ATCC13047 (ΔphoP/Q); details: n=2
P. aeruginosa PA01 = test: MIC, microbial susceptibility assay; assay type: cell-based, Pseudomonas aeruginosa; details: n=2
[2] = system: pairs of colistin sensitive and resistant strains of K. pneumoniae and A. baumannii (mcr-1 plasmid); assay type: cell-based
E. cloacae 0150 = test: MIC, microbial susceptibility assay; assay type: cell-based, Enterobacter cloacae; details: n=2
K. pneumoniae 10031 = details: n=2
K. pneumoniae ATCC13883 = details: n=2
[3] = system: A. baumannii SM1536 (pMQ124xlab1-mcr-1); test: MIC, microbial susceptibility assay; assay type: cell-based, Acinetobacter baumannii; details: for MIC: A. baumannii SM1536 (pMQ124xlab1-mcr-1), n=2
[4] = system: K. pneumoniae ATCC13883 (pMQ124-mcr-1); details: for Fold increase in MIC: K. pneumoniae 13883 upon introduction of mcr-1; for MIC: n=2
E. faecium Com15 = test: MIC, microbial susceptibility assay; assay type: cell-based; details: n=2
P. vulgaris 49132 = details: Proteus vulgaris, intrinsically colistin resistant (L-Ara4N)
[5] = system: A. baumannii ATCC17978 (pMQ124xlab1-mcr-1); test: MIC, microbial susceptibility assay; assay type: cell-based, Acinetobacter baumannii; details: n=2
S. aureus SH1000 = test: MIC, microbial susceptibility assay; assay type: cell-based; details: n=2
[6] = system: S. typhimurium 0635 (mcr-1); test: MIC, microbial susceptibility assay; assay type: cell-based; details: S. typhimurium 0635, mcr-1 clinical isolate; n=2
A. baumannii ATCC17978 [7] = test: MIC, microbial susceptibility assay; assay type: cell-based, Acinetobacter baumannii; details: n=2
[8] = system: E. cloacae ATCC13047 (ΔphoP/Q+phoP/Q); details: for MIC: n=2; for Fold increase in MIC: E. cloacae ATCC13047 upon introduction of phoP/Q; for susceptibility of strain: E. cloacae phoP/Q deletion rescued with phoP/Q plasmid
[9] = system: K. pneumoniae 0497 (mcr-1); details: n=2
A. baumannii 0301 = details: lipid analog table
N. meningitidis 13090 = details: eptA intrinsic resistance
[10] = system: A. baumannii 0287 (mcr-1 +); test: MIC, microbial susceptibility assay; assay type: cell-based, Acinetobacter baumannii; details: XDR A. baumannii 0287, mcr-1 +
A. baumannii 0287 = test: MIC, microbial susceptibility assay; assay type: cell-based, Acinetobacter baumannii; details: XDR A. baumannii 0287, mcr-1 −
A. baumannii-0301-mcr-1 = test: Neutropenic thigh infection model; assay type: in vivo, Acinetobacter baumannii; details: neutropenic mice, 20 mg/kg subcutaneous, 24 h
A. baumannii 0282 = test: MIC, microbial susceptibility assay; assay type: cell-based, Acinetobacter baumannii; details: XDR A. baumannii 0282, mcr-1 −
[11] = system: A. baumannii-SM1536-mcr-1; test: Neutropenic thigh infection model; assay type: in vivo, Acinetobacter baumannii; details: neutropenic mice, 20 mg/kg subcutaneous, 24 h
[12] = system: A. baumannii 0295 (mcr-1 +); test: MIC, microbial susceptibility assay; assay type: cell-based, Acinetobacter baumannii; details: XDR A. baumannii 0295, mcr-1 +
A. baumannii 0296 = test: MIC, microbial susceptibility assay; assay type: cell-based, Acinetobacter baumannii; details: XDR A. baumannii 0296, mcr-1 −
A. baumannii ATCC17978 [13] = test: CHIR-090 inhibition assay, growth curves; assay type: cell-based, Acinetobacter baumannii
A. baumannii 0295 = test: MIC, microbial susceptibility assay; assay type: cell-based, Acinetobacter baumannii; details: XDR A. baumannii 0295, mcr-1 −
[14] = Pharmacokinetics assessment, plasma; assay type: in vivo; details: mice, single subcutaneous dose 10 mg/kg
HT29 cells = test: MTT cytotoxicity assay; assay type: cell-based, human; details: 48 h incubation
M. osloensis 10973 = details: eptA intrinsic resistance
[15] = system: A. baumannii 0301 (mcr-1); test: MIC, microbial susceptibility assay; assay type: cell-based, Acinetobacter baumannii
A. baumannii 0286 = test: MIC, microbial susceptibility assay; assay type: cell-based, Acinetobacter baumannii; details: XDR A. baumannii 0286, mcr-1 −
[16] = K. pneumoniae ATCC13883 (pMQ124-mcr-1)
[17] = A. baumannii 17978, ESKAPE panel
[18] = A. baumannii ATCC17978, mcr-1 engineered pairs
[19] = E. cloacae ATCC13047 (ΔphoP/Q+phoP/Q)
[20] = K. pneumoniae 0497, mcr-1 clinical isolate

Molecule: Polymyxin B
- MIC ([1]; E. cloacae ATCC13047 (ΔphoP/Q)): 1 µg/mL
- MIC (P. aeruginosa PA01): 2 µg/mL
- increase in MIC upon mcr-1 expression [2]: ≥ 32 fold
- MIC (E. cloacae 0150): 1 µg/mL
- MIC (K. pneumoniae 10031): 1 µg/mL
- MIC (K. pneumoniae ATCC13883): 1 µg/mL
- MIC [3]: 128 µg/mL
- Fold increase in MIC [4]: 128
- MIC [4, 16]: 128 µg/mL
- MIC (E. faecium Com15): >128 µg/mL
- MIC (P. vulgaris 49132): > 128 µg/mL
- MIC (A. baumannii SM1536; n=2): 1 µg/mL
- MIC [5]: 16 µg/mL
- MIC (S. aureus SH1000): >128 µg/mL
- MIC [6]: 16 µg/mL
- MIC (A. baumannii ATCC17978 [7]; [17]): 0.5 µg/mL
- MIC (A. baumannii ATCC17978 [7]; [18]): 0.5 µg/mL
- MIC [8, 19]: 32 µg/mL
- Fold increase in MIC [8]: 32
- susceptibility of strain [8]: resistant
- MIC [9, 20]: 32 µg/mL

Molecule: colistin
- MIC (A. baumannii 0301): 0.25 µg/mL
- MIC (N. meningitidis 13090): 128 µg/mL
- MIC ([1]; E. cloacae ATCC13047 (ΔphoP/Q)): 1 µg/mL
- MIC [10]: 64 µg/mL
- MIC (A. baumannii 0287): 0.5 µg/mL
- bacterial burden in thigh relative to initial infection (A. baumannii-0301-mcr-1): did not reduce the bacterial burden below the level of the initial infection
- MIC (A. baumannii 0282): 0.5 µg/mL
- bacterial burden in thigh relative to initial infection [11]: did not reduce the bacterial burden below the level of the initial infection
- MIC (P. aeruginosa PA01): 1 µg/mL
- increase in MIC upon mcr-1 expression [2]: ≥ 32 fold
- MIC (E. cloacae 0150): 1 µg/mL
- MIC [12]: >128 µg/mL
- MIC (A. baumannii 0296): 0.25 µg/mL
- MIC (K. pneumoniae 10031): 0.5 µg/mL
- A. baumannii growth with antibiotic plus CHIR-090 (A. baumannii ATCC17978 [13]; antibiotic at 10x MIC with LpxC inhibitor CHIR-090, 48 h): rescued A. baumannii growth
- A. baumannii growth with antibiotic alone (A. baumannii ATCC17978 [13]; concentrations above MIC (10x MIC), 48 h): completely abrogated A. baumannii growth
- MIC (A. baumannii 0295): 0.25 µg/mL
- MIC (K. pneumoniae ATCC13883): 1 µg/mL
- MIC [3]: 128 µg/mL
- Fold increase in MIC ([3]; A. baumannii SM1536 upon introduction of mcr-1): 256
- Fold increase in MIC [4]: 64
- MIC [4, 16]: 64 µg/mL
- MIC (E. faecium Com15): >128 µg/mL
- MIC (P. vulgaris 49132): > 128 µg/mL
- plasma drug exposure (pharmacokinetic profile) [14]: parity in plasma drug exposure
- MIC (A. baumannii SM1536; lipid analog table): 0.5 µg/mL
- MIC (A. baumannii SM1536; n=2): 0.5 µg/mL
- MIC [5]: 32 µg/mL
- MIC (S. aureus SH1000): >128 µg/mL
- cytotoxicity to human cells, IC50 (HT29 cells): > 512 µg/mL
- MIC [6]: 16 µg/mL
- MIC (A. baumannii ATCC17978 [7]; [17]): 1 µg/mL
- MIC (A. baumannii ATCC17978 [7]; [18]): 1 µg/mL
- MIC (M. osloensis 10973): 8 µg/mL
- MIC (N. gonorrhoeae 49226): >128 µg/mL
- MIC [8, 19]: 32 µg/mL
- Fold increase in MIC [8]: 32
- susceptibility of strain [8]: resistant
- MIC [9, 20]: 32 µg/mL
- MIC ([15]; A. baumannii 0301 (mcr-1), lipid analog table): >128 µg/mL
- Fold increase in MIC ([15]; A. baumannii 0301 upon introduction of mcr-1): >512
- MIC ([15]; A. baumannii-0301 transformed with mcr-1 (PDR strain)): > 64 µg/mL
- MIC (A. baumannii 0286): 1 µg/mL

Molecule: CC[C@H](C)CCCCC(=O)N[C@@H](CCN)C(=O)N[C@H](C(=O)N[C@H](CO)C(=O)N[C@H]1CCNC(=O)[C@H]([C@@H](C)O)NC(=O)[C@H](CCN)NC(=O)[C@H](CCN)NC(=O)[C@H]([C@@H](C)CC)NC(=O)[C@@H](CC(C)C)NC(=O)[C@H](CCN)NC1=O)[C@@H](C)O [Macolacin-10Thr] (X1-[Dab]T[dS][Dab][Dab][dL]I[Dab][Dab]T; lactam 4-C)
- MIC ([1]; E. cloacae ATCC13047 (Δ phoP/Q), SAR table): 1 µg/mL (≈ 0.865 µM)
- MIC ([4]; K. pneumoniae 13883 (mcr-1), SAR table): 64 µg/mL (≈ 55.3 µM)
- Fold increase in MIC [4]: 64
- MIC ([8]; E. cloacae ATCC13047 (Δ phoP/Q+phoP/Q), SAR table): 16 µg/mL (≈ 13.8 µM)
- Fold increase in MIC [8]: 16
- MIC ([9]; K. pneumoniae 0497 (mcr-1), SAR table): 8 µg/mL (≈ 6.92 µM)
